Structures can show the parent of a compound that is named as a salt.
How the values were obtained:
Type in all cases: physicochemical
[1] = Dry particle sizing analysis (SympaTec)
Description: The crystals were dried in a vacuum oven at 50° C. and 10 inches of Hg with an air bleed for 24 hours. The dried material was sieved through a 30 mesh (600 μm) screen as a means to delump. Differential scanning calorimetry and x-ray diffraction confirmed the complete conversion to the Voriconazole free-base. No unreacted Voriconazole camphorsulfonate was detected.
Specification of product conventionally obtained by jet milling is 90% less than 130 microns and 50% less than 50 microns.

[2] = Particle size analysis by Malvern light scattering, hexane as dispersant; conditions: for D90, 90% of the particles by volume less than / volume mean diameter, D[4,3] / fines (particles below about 1 micron detected): Malvern, hydrochloride monohydrate; for D90, 90% of the particles by volume less than / volume mean diameter, D[4,3]: dried crystals; for particle size distribution compared with batch crystallized and milled sample: impinging jet material vs comparative 15.6 kg sample
Description: X-ray diffraction (XRD) and differential scanning calorimetry (DSC) indicated the correct form of Ziprasidone hydrochloride monohydrate was produced by the impinging jet reactive crystallization process. The dried powder crystals were sieved through a 600 micron sieve as a means to delump. The particles were analyzed by Malvern using hexane as a dispersant.
The crystals were sieved through a 600 micron sieve to delump and the particles were analyzed by Malvern using hexane as a dispersant. […] According to patent EU 0 965 343 A2 (08.06.1999), the most preferred mean particle size of Ziprasidone hydrochloride monohydrates is in the 5-30 micron range obtained through milling operations which the present invention achieves without the need for high intensity milling. The particle sizes stipulated herein and in the claims refer to particle sizes determined with Malvern light scattering.
In a comparative 15.6 kg sample produced by the typical batch crystallization process method followed by milling using a pin mill at 10,000 rpm, the volume mean diameter, D[4,3], was 23.6 microns with 90% of the particles by volume less than 51 microns, while 5.4% of the batch by the volume distribution had particle size less than 1 micron indicating a much greater number of fines. […]

[3] = Particle size of the jet milled seed (method not given)
Description: A receiving vessel contained 250 ml of methanol and 250 ml of ethyl acetate to which 20 milligrams of jet milled 5,8,14-triazatetracyclo[10.3.1.0^2,11.0^4,9]-hexadeca-2(11),3,5,7,9-pentaene (L)-tartrate were added as seed. […] The receiver was equipped with magnetic stirrer to suspend the seed in the methanol-ethyl acetate solvent system. The impinging jet apparatus was submerged in the receiver vessel with both jets having inside diameters of 0.007 inches (ID).

[4] = Particle size analysis (Aerosizer)
Description: Flow of neat methanol and ethyl acetate was initiated through their respective jets at 20 ml/min for 5 seconds from separate reservoirs to establish steady state flow. By way of two 3-way valves the solutions of 5,8,14-triazatetracyclo[10.3.1.0^2,11.0^4,9]-hexadeca-2(11),3,5,7,9-pentaene free base solution and (L)-tartaric acid were switched on so they would impinge each other at the same 20 ml/min flow rate. The velocities through the jets were 13.4 meters/sec. After 1 minute of impingement the flows were stopped and the resulting slurry was allowed to age in the agitated receiver for 5 minutes. The slurry was vacuum filtered and dried at 40° C. overnight and delumped through a 500 micron sieve.

SMILES: C[C@@H](c1ncncc1F)[C@](O)(Cn1cncn1)c1ccc(F)cc1F [Example 4, Voriconazole free base]
- 50% of particles (D[v,0.50]) less than [1]: 18 microns
- 90% of particles (D[v,0.9]) less than [1]: 41 microns
- volume mean diameter ([1]; sieved through 30 mesh): 22 microns

SMILES: O=C1Cc2cc(CCN3CCN(c4nsc5ccccc45)CC3)c(Cl)cc2N1 [Example 1, Ziprasidone hydrochloride monohydrate]
- D90, 90% of the particles by volume less than [2]: 83 microns
- volume mean diameter, D[4,3] [2]: 43 microns
- fines (particles below about 1 micron detected) [2]: No particles with diameters of less that 0.9 micron were detected
- particle size distribution compared with batch crystallized and milled sample [2]: narrower particle size distribution with fewer fines produced

SMILES: O=C(O)C(O)C(O)C(=O)O.c1cnc2cc3c(cc2n1)C1CNCC3C1 [seed, 5,8,14-triazatetracyclo[10.3.1.0^2,11.0^4,9]-hexadeca-2(11),3,5,7,9-pentaene (L)-tartrate]
- volume mean diameter [3]: 2.7 microns

SMILES: O=C1Cc2cc(CCN3CCN(c4nsc5ccccc45)CC3)c(Cl)cc2N1 [Example 3, Ziprasidone hydrochloride monohydrate]
- D90, 90% of the particles by volume less than [2]: 210 microns
- volume mean diameter, D[4,3] [2]: 104 microns
- fines (particles below about 1 micron detected) [2]: No particles below 1 micron were measured

SMILES: O=C(O)C(O)C(O)C(=O)O.c1cnc2cc3c(cc2n1)C1CNCC3C1 [Example 5, 5,8,14-triazatetracyclo[10.3.1.0^2,11.0^4,9]-hexadeca-2(11),3,5,7,9-pentaene L-tartrate]
- 5% of particles less than [4]: 5 microns
- 95% of the particles less than [4]: 15 microns
- volume mean diameter ([4]; delumped through 500 micron sieve): 10 microns

SMILES: O=C1Cc2cc(CCN3CCN(c4nsc5ccccc45)CC3)c(Cl)cc2N1 [Example 2, Ziprasidone hydrochloride monohydrate]
- D90, 90% of the particles by volume less than [2]: 41 microns
- volume mean diameter, D[4,3] [2]: 22.5 microns
- fines (particles below about 1 micron detected) [2]: No particles of less that 1.0 micron were detected
- particle size distribution compared with batch crystallized and milled sample [2]: narrower particle size distribution with fewer fines produced

From US6558435B2, “Reactive crystallization method to improve particle size” (Pfizer, Inc., priority 2000, dated 2003)
